“Also recorded” adds a separate entry of the source. Peptide text beside a SMILES is read from it. * marks the point of attachment. Cbz = O=C(OCc1ccccc1)*
How the values were obtained:
BCL-6 [1] = test: MEK-2E mediated degradation of BCL-6 in transfected 293T cells, Western blot; assay type: cell-based; conditions: 293T cells transfected with BCL-6 and MEK-2E; inhibitor 50 μM added 8 hrs after transfection
Method: (§1) FIGS. 22A-22B MAPK-induced BCL-6 degradation is mediated by the ubiquitin/proteasome pathway. (FIG. 22A) Western blot analysis of BCL-6 proteins in 293T cells transfected with BCL-6 in the absence or presence of co-transfected MEK-2E treated with 0.2% DMSO (lanes 1-3), 50 μM Calpain inhibitor II (lanes 4-6), or 50 μM MG132 (lanes 7-9) (added 8hrs after transfection). (FIG. 22B) 293T cells were transfected with BCL-6, His-Ub, and MEK-2E in the absence (lanes 1-4) or presence of MG132 (lanes 5-8). Cell lysates were immunoprecipitated with anti-BCL-6 antibodies (N-70-6) and the immunoprecipitants were analyzed by 6% SDS-PAGE followed by Western blot analysis using anti-ubiquitin antibodies.
293T cells, grow in DMEM, 10% FBS, were transfected transiently with various DNA vectors using standard calcium phosphate precipitation methods. […]
(§2) Total RNA were isolated from cells by using Trizol-reagents (GIBCO-BRL) and equal amounts of RNA were separated on 1% formaldehyde-agarose gel. […] For Ramos cells and their stable transfectants (untreated or treated), equal amounts of protein were analyzed by 8% or 10% SDS-PAGE, and subsequently by Western blot analysis using anti-BCL-6 (N-70-6), anti-ERK2 (C-14) or anti-HA (12CA5) antibodies at 1:3000, 1:1000 or 1:500 dilutions. […]

BCL-6 [2] = test: Anti-IgM treatment of Ramos cells, Western blot of BCL-6; assay type: cell-based, human; conditions: inhibitor 50 μM added 30 min (PD098059) or 1 hr (MG132) before anti-IgM
Method: FIGS. 23A-23E. BCL-6 is phosphorylated and degraded by antigen receptor signaling in B cells. Ramos cells ([…]) were treated with anti-IgM ([…]) and harvested at different time points after treatment as indicated. (FIG. 23A) (Top three panels) Equal amounts of cell extracts were used for Western blot analysis using anti-BCL-6 (top), or anti-ERK2 (middle) antibodies, and for solid phase ERK2 kinase assays (MBP, bottom); Equal amounts of RNAs (10 μg) were used for Northern blot analysis with BCL-6 or GAPDH probes (bottom). (FIG. 23B) Hyperphosphorylated BCL-6 proteins are more unstable. […] Cell extracts were immunoprecipitated with anti-BCL-6 antibodies and analyzed by SDS-PAGE followed by autoradiography. […] Equal amounts of cell extracts were loaded on 7% (HA-BCL-6 or HA-BCL-6Ala333,343) or 10% SDS-PAGE (HA-BCL-6ZF) and the amount of exogenous BCL-6 proteins were analyzed by Western blot using anti-HA antibodies (12CA5).
as §2

[3] = test system: BCL-6/ubiquitin conjugates; test: In vivo ubiquitination assay in transfected 293T cells (anti-BCL-6 immunoprecipitation, anti-ubiquitin Western blot); assay type: cell-based
Method: as §1, with “antibodies. […]” for “antibodies.”
Therefore, we tested whether MEK-2E mediated degradation of BCL-6 in transfected 293T cells could be inhibited by the proteasome inhibitor Cbz-LLL (MG132) (Kim and Maniatis, 1996; Palombella et al., 1994; Rock et al., 1994). […] Because the addition of multiple ubiquitins to the proteolysis substrate is a key step preceding target degradation by the proteasome, we then tested whether BCL-6/ubiquitin conjugates in vivo could be detected. […] Cell lysates were subjected to immunoprecipitation with anti-BCL-6 antibodies, and the immunoprecipitates were analyzed by Western blotting using anti-ubiquitin antibodies. […]

Compound	inhibition of MEK-2E mediated BCL-6 degradation (BCL-6 [1])	inhibition of anti-IgM-induced BCL-6 degradation (BCL-6 [2])	multi-ubiquitinated forms of BCL-6 (BCL-6/ubiquitin conjugates) ([3]; 293T cells transfected with BCL-6, His-Ub and MEK-2E, MG132 50 μM (lane 8))	multi-ubiquitinated forms of BCL-6 (BCL-6/ubiquitin conjugates) ([3]; 293T cells transfected with BCL-6 and His-Ub, no MEK-2E, MG132 50 μM (lane 7))
CSCC[C@@H](C=O)NC(=O)[C@H](CC(C)C)NC(=O)[C@H](CC(C)C)NC(C)=O [calpain inhibitor II] (Ac-Leu-Leu-Met-aldehyde)	not			
CC(C)C[C@@H](C=O)NC(=O)[C@H](CC(C)C)NC(=O)[C@H](CC(C)C)NC(=O)OCc1ccccc1 [MG132, N-CBZ-Leu-Leu-Leu-AL] (Cbz-Leu-Leu-Leu-aldehyde)	prevented; also recorded: completely inhibited	specifically inhibited; also recorded: prevented	detectable at high levels	low levels were detectable
COc1cccc(-c2cc(=O)c3ccccc3o2)c1N [PD098059]		inhibited; also recorded: prevented		

— patent US20010010922A1, “CLONING AND USES OF THE GENETIC LOCUS BCL-6” (priority 1994, published 2001)
